Assays:
[1] = system: rape; experiment: Test B preemergence/postemergence greenhouse plant response rating 0 to 10; assay type: in vivo, Brassica napus; details: 0 to 10 scale
Outline: (§1)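 Both application timings were run together: seeds got compound preemergence, and established seedlings (two to eighteen cm) got it postemergence. Non-phytotoxic solvent carried the chemical. Ratings are visual, versus controls, at twelve to sixteen days.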

[2] = system: chickweed; experiment: as above; assay type: in vivo, Stellaria media; details: 0 to 10 scale
Outline: as §1

[3] = system: downy brome; experiment: Test C preemergence/postemergence greenhouse plant response rating 0 to 100; assay type: in vivo, Bromus tectorum; details: POSTEMERGENCE; for Plant response rating Downy Brome: 0 to 100 scale
Outline: (§2)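 Compounds in non-phytotoxic solvent went onto sandy loam before emergence (seeded one day earlier) or onto plants at the one-to-four leaf stage. Duck salad was treated via flood water (~2.5 cm, maintained) over silt loam.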

[4] = system: wild buckwheat; experiment: Test B preemergence/postemergence greenhouse plant response rating 0 to 10; assay type: in vivo, Polygonum convolvulus; details: 0 to 10 scale
Outline: as §1

[5] = system: sugar beet; experiment: Test C preemergence/postemergence greenhouse plant response rating 0 to 100; assay type: in vivo, Beta vulgaris; details: POSTEMERGENCE; for Plant response rating, Sugar beet: 0 to 100 scale
Outline: as §2

[6] = system: crabgrass; experiment: as above; assay type: in vivo, Digitaria sanguinalis; details: POSTEMERGENCE; for Plant response rating, Crabgrass: 0 to 100 scale
Outline: as §2

[7] = system: bedstraw; experiment: as above; assay type: in vivo, Galium aparine; details: POSTEMERGENCE; for Plant response rating, Bedstraw: 0 to 100 scale
Outline: as §2

[8] = system: umbrella sedge; experiment: Test C flood test plant response rating 0 to 100; assay type: in vivo, Cyperus difformis; details: for Plant response rating Umbrella sedge: flood test species listed under POSTEMERGENCE, 0 to 100 scale
Outline: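 Compounds in non-phytotoxic solvent applied preemergence to sandy loam one day after planting, postemergence at the 1–4 leaf stage, or to ~2.5 cm floodwater over silt loam.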

[9] = system: wild oat; experiment: Test C preemergence/postemergence greenhouse plant response rating 0 to 100; assay type: in vivo, Avena fatua; details: POSTEMERGENCE; for Plant response rating, Wild oat: 0 to 100 scale
Outline: as §2

[10] = system: ryegrass; experiment: as above; assay type: in vivo, Lolium multiflorum; details: POSTEMERGENCE; for Plant response rating Ryegrass: 0 to 100 scale
Outline: as §2

[11] = system: barnyardgrass; experiment: Test B preemergence/postemergence greenhouse plant response rating 0 to 10; assay type: in vivo, Echinochloa crus-galli; details: 0 to 10 scale
Outline: as §1

[12] = system: corn; experiment: Test C preemergence/postemergence greenhouse plant response rating 0 to 100; assay type: in vivo, Zea mays; details: POSTEMERGENCE; for Plant response rating, Corn: 0 to 100 scale
Outline: as §2

## COC(=O)c1cc(-c2nn3c(c2Cl)CCCC3)c(F)cc1Cl [Compound 43]
[1]; POSTEMERGENCE, Rate 50 g/ha
  Plant response rating, Rape: 9
[1]; PREEMERGENCE, Rate 50 g/ha
  Plant response rating, Rape: 0
[1]; Rate 200 g/ha, POSTEMERGENCE
  Plant response rating, Rape: 10
[1]; Rate 200 g/ha, PREEMERGENCE
  Plant response rating, Rape: 9
[2]; POSTEMERGENCE, Rate 200 g/ha
  Plant response rating, Chickweed: 10
[2]; PREEMERGENCE, Rate 50 g/ha
  Plant response rating, Chickweed: 0
[2]; Rate 200 g/ha, PREEMERGENCE
  Plant response rating, Chickweed: 10
[3]; 62 g/ha
  Plant response rating Downy Brome: 50
[3]; 250 g/ha
  Plant response rating Downy Brome: 80
[3]; Rate 4 g/ha
  Plant response rating (0 to 100), Downy Brome: 30
[3]; Rate 16 g/ha
  Plant response rating (0 to 100), Downy Brome: 40
[4]; POSTEMERGENCE, Rate 50 g/ha
  Plant response rating, Wild buckwheat: 10
[4]; PREEMERGENCE, Rate 50 g/ha
  Plant response rating, Wild buckwheat: 8
[4]; Rate 200 g/ha, POSTEMERGENCE
  Plant response rating, Wild buckwheat: 10
[4]; Rate 200 g/ha, PREEMERGENCE
  Plant response rating, Wild buckwheat: 10
[5]; 62 g/ha
  Plant response rating, Sugar beet: 60
[5]; 250 g/ha
  Plant response rating, Sugar beet: 80
[5]; Rate 4 g/ha
  Plant response rating (0 to 100), Sugar beet: 30
[5]; Rate 16 g/ha
  Plant response rating (0 to 100), Sugar beet: 40
[6]; 62 g/ha
  Plant response rating, Crabgrass: 20
[6]; 250 g/ha
  Plant response rating, Crabgrass: 60
[6]; Rate 4 g/ha
  Plant response rating (0 to 100), Crabgrass: 10
[6]; Rate 16 g/ha
  Plant response rating (0 to 100), Crabgrass: 20
[7]; 62 g/ha
  Plant response rating, Bedstraw: 70
[7]; 250 g/ha
  Plant response rating, Bedstraw: 100
[7]; Rate 4 g/ha
  Plant response rating (0 to 100), Bedstraw: 40
[7]; Rate 16 g/ha
  Plant response rating (0 to 100), Bedstraw: 60
[8]; POSTEMERGENCE section, flood test, Rate 4 g/ha
  Plant response rating (0 to 100), Umbrella sedge: 0
[8]; Rate 16 g/ha, under POSTEMERGENCE head (flood test species)
  Plant response rating (0 to 100), Umbrella sedge: 0
[8]; 62 g/ha
  Plant response rating Umbrella sedge: 60
[8]; 250 g/ha
  Plant response rating Umbrella sedge: 70
[9]; 62 g/ha
  Plant response rating, Wild oat: 50
[9]; 250 g/ha
  Plant response rating, Wild oat: 60
[9]; Rate 4 g/ha
  Plant response rating (0 to 100), Wild oat: 20
[9]; Rate 16 g/ha
  Plant response rating (0 to 100), Wild oat: 40
[10]; 62 g/ha
  Plant response rating Ryegrass: 50
[10]; 250 g/ha
  Plant response rating Ryegrass: 85
[10]; Rate 4 g/ha
  Plant response rating (0 to 100), Ryegrass: 30
[10]; Rate 16 g/ha
  Plant response rating (0 to 100), Ryegrass: 40
[11]; POSTEMERGENCE, Rate 50 g/ha
  Plant response rating, Barnyardgrass: 7
[11]; POSTEMERGENCE, Rate 200 g/ha
  Plant response rating, Barnyardgrass: 9
[11]; PREEMERGENCE, Rate 50 g/ha
  Plant response rating, Barnyardgrass: 0
[11]; Rate 200 g/ha, PREEMERGENCE
  Plant response rating, Barnyardgrass: 2
[12]; 62 g/ha
  Plant response rating, Corn: 90
[12]; 250 g/ha
  Plant response rating, Corn: 90
[12]; Rate 4 g/ha
  Plant response rating (0 to 100), Corn: 20
[12]; Rate 16 g/ha
  Plant response rating (0 to 100), Corn: 50
